Source: ChEMBL document CHEMBL1201862, “PubChem BioAssay data set” (2004)
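Method: 48-hour compound exposure of cells in 96-well plates, five concentrations, linear interpolation of endpoints. GI50 = concentration required for 50% inhibition of growth.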 The source made the active and inactive calls. No stated cut-off is given here; in the data, active = GI50 up to about 1.1 µM and inactive = higher.

Key:
Experiment in all cases: NCI-60 cell line screen, 48 h
U-251 = system: U-251
SF-295 = system: SF-295
CCRF-CEM = system: CCRF-CEM
UO-31 = system: UO-31
A498 = system: A498
MDA-N = system: MDA-N
OVCAR-4 = system: OVCAR-4
M14 = system: M14
SR = system: SR
NCI-H226 = system: NCI-H226
RPMI-8226 = system: RPMI-8226
KM12 = system: KM12
OVCAR-5 = system: OVCAR-5
RXF 393 = system: RXF 393
NCI-H23 = system: NCI-H23
T47D = system: T47D
NCI/ADR-RES = system: NCI/ADR-RES
NCI-H522 = system: NCI-H522
BT-549 = system: BT-549
HL-60 = system: HL-60
HOP-62 = system: HOP-62
MDA-MB-435 = system: MDA-MB-435
Malme-3M = system: Malme-3M
NCI-H460 = system: NCI-H460
HT-29 = system: HT-29
SK-OV-3 = system: SK-OV-3
SF-268 = system: SF-268
EKVX = system: EKVX
A549 = system: A549
HCT-15 = system: HCT-15
HCC 2998 = system: HCC 2998
MCF7 = system: MCF7
MOLT-4 = system: MOLT-4
MDA-MB-231 = system: MDA-MB-231
ACHN = system: ACHN
DU-145 = system: DU-145
UACC-257 = system: UACC-257
SK-MEL-2 = system: SK-MEL-2
SN12C = system: SN12C
SF-539 = system: SF-539
HCT-116 = system: HCT-116
LOX IMVI = system: LOX IMVI
PC-3 = system: PC-3
K562 = system: K562
TK-10 = system: TK-10
SK-MEL-28 = system: SK-MEL-28
Hs-578T = system: Hs-578T
COLO 205 = system: COLO 205
OVCAR-8 = system: OVCAR-8
786-0 = system: 786-0
IGROV-1 = system: IGROV-1
SNB-75 = system: SNB-75
OVCAR-3 = system: OVCAR-3
UACC-62 = system: UACC-62
SNB-19 = system: SNB-19
HOP-92 = system: HOP-92
CAKI-1 = system: CAKI-1
SK-MEL-5 = system: SK-MEL-5
SW-620 = system: SW-620

## COC(=O)[C@H]1[C@@H](O)[C@@]2(O)c3c(OC)cc(OC)cc3O[C@@]2(c2ccc3c(c2)OCO3)[C@@H]1c1ccccc1
U-251
  GI50: 7.06 nM (active)
SF-295
  GI50: 5.78 nM (active)
CCRF-CEM
  GI50: 6.07 nM (active)
UO-31
  GI50: 6.04 nM (active)
A498
  GI50: 14.4 nM (active)
MDA-N
  GI50: 5.13 nM (active)
OVCAR-4
  GI50: 14.9 nM (active)
M14
  GI50: 6.03 nM (active)
SR
  GI50: < 5 nM (active)
NCI-H226
  GI50: 13.6 nM (active)
RPMI-8226
  GI50: < 5 nM (active)
KM12
  GI50: < 5 nM (active)
OVCAR-5
  GI50: 9.53 nM (active)
RXF 393
  GI50: 64.7 nM (active)
NCI-H23
  GI50: 6.17 nM (active)
T47D
  GI50: 5.16 nM (active)
NCI/ADR-RES
  GI50: 8.93 nM (active)
NCI-H522
  GI50: < 12.2 nM (active)
BT-549
  GI50: 21.9 nM (active)
HL-60
  GI50: 6.29 nM (active)
HOP-62
  GI50: 8.79 nM (active)
MDA-MB-435
  GI50: 6.03 nM (active)
Malme-3M
  GI50: 16.8 nM (active)
NCI-H460
  GI50: < 5 nM (active)
HT-29
  GI50: < 5 nM (active)
SK-OV-3
  GI50: 5.39 nM (active)
SF-268
  GI50: 11.7 nM (active)
EKVX
  GI50: 17 nM (active)
A549
  GI50: < 5 nM (active)
HCT-15
  GI50: < 5 nM
HCC 2998
  GI50: 8.38 nM (active)
MCF7
  GI50: < 5 nM (active)
MOLT-4
  GI50: < 5 nM (active)
MDA-MB-231
  GI50: 13.6 nM (active)
ACHN
  GI50: < 5 nM (active)
DU-145
  GI50: 8.73 nM (active)
UACC-257
  GI50: 8.26 nM (active)
SK-MEL-2
  GI50: 20.7 nM (active)
SN12C
  GI50: 7.6 nM (active)
SF-539
  GI50: < 5 nM (active)
HCT-116
  GI50: < 5 nM (active)
LOX IMVI
  GI50: 5.25 nM (active)
PC-3
  GI50: 11.3 nM (active)
K562
  GI50: < 5 nM (active)
TK-10
  GI50: 6.84 nM (active)
SK-MEL-28
  GI50: 8.15 nM (active)
Hs-578T
  GI50: 14.6 nM (active)
COLO 205
  GI50: 7.36 nM (active)
OVCAR-8
  GI50: 25.3 nM (active)
786-0
  GI50: 6.25 nM (active)
IGROV-1
  GI50: 5.18 nM (active)
SNB-75
  GI50: 14.6 nM (active)
OVCAR-3
  GI50: 22.5 nM (active)
UACC-62
  GI50: 22.2 nM (active)
SNB-19
  GI50: < 5 nM (active)
HOP-92
  GI50: 40.8 nM (active)
CAKI-1
  GI50: 8.93 nM (active)
SK-MEL-5
  GI50: 7.57 nM (active)
SW-620
  GI50: < 5 nM (active)

## COc1cccc2c(=O)c3c(n(C)c12)OC(C(C)C)C3 (configuration not stated)
U-251
  GI50: > 100000 nM (inactive)
SF-295
  GI50: > 100000 nM (inactive)
CCRF-CEM
  GI50: > 100000 nM (inactive)
UO-31
  GI50: 40700 nM (inactive)
A498
  GI50: > 100000 nM (inactive)
MDA-N
  GI50: > 100000 nM (inactive)
OVCAR-4
  GI50: 22500 nM (inactive)
M14
  GI50: > 100000 nM (inactive)
SR
  GI50: 30800 nM (inactive)
NCI-H226
  GI50: 83200 nM (inactive)
RPMI-8226
  GI50: 46700 nM (inactive)
KM12
  GI50: 99500 nM (inactive)
OVCAR-5
  GI50: > 100000 nM (inactive)
RXF 393
  GI50: > 100000 nM (inactive)
NCI-H23
  GI50: > 100000 nM (inactive)
T47D
  GI50: 87300 nM (inactive)
NCI/ADR-RES
  GI50: 55700 nM (inactive)
NCI-H522
  GI50: > 100000 nM (inactive)
BT-549
  GI50: > 100000 nM (inactive)
HL-60
  GI50: 69700 nM (inactive)
HOP-62
  GI50: > 100000 nM (inactive)
MDA-MB-435
  GI50: > 100000 nM (inactive)
Malme-3M
  GI50: > 100000 nM (inactive)
NCI-H460
  GI50: 52100 nM (inactive)
HT-29
  GI50: > 100000 nM (inactive)
SK-OV-3
  GI50: > 100000 nM (inactive)
SF-268
  GI50: > 100000 nM (inactive)
EKVX
  GI50: 89500 nM (inactive)
A549
  GI50: > 100000 nM (inactive)
HCT-15
  GI50: 46900 nM
HCC 2998
  GI50: > 100000 nM (inactive)
MCF7
  GI50: > 100000 nM (inactive)
MOLT-4
  GI50: 16900 nM (inactive)
MDA-MB-231
  GI50: > 100000 nM (inactive)
ACHN
  GI50: 63000 nM (inactive)
DU-145
  GI50: > 100000 nM (inactive)
UACC-257
  GI50: > 100000 nM (inactive)
SK-MEL-2
  GI50: > 100000 nM (inactive)
SN12C
  GI50: > 100000 nM (inactive)
SF-539
  GI50: > 100000 nM (inactive)
HCT-116
  GI50: > 100000 nM (inactive)
LOX IMVI
  GI50: > 100000 nM (inactive)
PC-3
  GI50: > 100000 nM (inactive)
K562
  GI50: 27500 nM (inactive)
TK-10
  GI50: > 100000 nM (inactive)
SK-MEL-28
  GI50: > 100000 nM (inactive)
Hs-578T
  GI50: > 100000 nM (inactive)
COLO 205
  GI50: 74000 nM (inactive)
OVCAR-8
  GI50: > 100000 nM (inactive)
786-0
  GI50: > 100000 nM (inactive)
IGROV-1
  GI50: 42600 nM (inactive)
SNB-75
  GI50: > 100000 nM (inactive)
OVCAR-3
  GI50: > 100000 nM (inactive)
UACC-62
  GI50: > 100000 nM (inactive)
SNB-19
  GI50: 69700 nM (inactive)
HOP-92
  GI50: > 100000 nM (inactive)
CAKI-1
  GI50: 42800 nM (inactive)
SK-MEL-5
  GI50: 56100 nM (inactive)
SW-620
  GI50: > 100000 nM (inactive)

## CC(=O)OC(C)(C)/C=C/C(=O)[C@](C)(O)[C@H]1[C@H](O)C[C@@]2(C)[C@@H]3CC=C4[C@@H](C[C@H](O)C(=O)C4(C)C)[C@]3(C)C(=O)C[C@]12C
U-251
  GI50: < 10 nM (active)
SF-295
  GI50: < 10 nM (active)
CCRF-CEM
  GI50: < 10 nM (active)
UO-31
  GI50: < 10 nM (active)
A498
  GI50: < 10 nM (active)
MDA-N
  GI50: < 10 nM (active)
OVCAR-4
  GI50: < 10 nM (active)
M14
  GI50: < 10 nM (active)
SR
  GI50: < 10 nM (active)
NCI-H226
  GI50: < 10 nM (active)
RPMI-8226
  GI50: < 10 nM (active)
KM12
  GI50: 1400 nM (inactive)
OVCAR-5
  GI50: < 24.6 nM (active)
RXF 393
  GI50: < 10 nM (active)
NCI-H23
  GI50: 87.3 nM (active)
T47D
  GI50: 36.2 nM (active)
NCI/ADR-RES
  GI50: 11.2 nM (active)
NCI-H522
  GI50: < 10 nM (active)
BT-549
  GI50: < 10 nM (active)
HL-60
  GI50: < 10 nM (active)
HOP-62
  GI50: < 11.1 nM (active)
MDA-MB-435
  GI50: < 10 nM (active)
Malme-3M
  GI50: < 10 nM (active)
NCI-H460
  GI50: < 10 nM (active)
HT-29
  GI50: < 10 nM (active)
SK-OV-3
  GI50: < 10 nM (active)
SF-268
  GI50: < 10 nM (active)
EKVX
  GI50: 10.2 nM (active)
A549
  GI50: < 10 nM (active)
HCT-15
  GI50: < 10 nM
HCC 2998
  GI50: < 10 nM (active)
MCF7
  GI50: < 10 nM (active)
MOLT-4
  GI50: 167 nM (active)
MDA-MB-231
  GI50: < 10 nM (active)
ACHN
  GI50: < 10 nM (active)
DU-145
  GI50: < 10 nM (active)
UACC-257
  GI50: < 10 nM (active)
SK-MEL-2
  GI50: < 10 nM (active)
SN12C
  GI50: < 14.3 nM (active)
SF-539
  GI50: < 10 nM (active)
HCT-116
  GI50: < 10 nM (active)
LOX IMVI
  GI50: < 10 nM (active)
PC-3
  GI50: < 10 nM (active)
K562
  GI50: < 10 nM (active)
TK-10
  GI50: < 10 nM (active)
SK-MEL-28
  GI50: < 10 nM (active)
Hs-578T
  GI50: < 10 nM (active)
COLO 205
  GI50: < 10 nM (active)
OVCAR-8
  GI50: 64 nM (active)
786-0
  GI50: < 10 nM (active)
IGROV-1
  GI50: < 10 nM (active)
SNB-75
  GI50: < 10 nM (active)
OVCAR-3
  GI50: < 10 nM (active)
UACC-62
  GI50: < 10 nM (active)
SNB-19
  GI50: < 17.4 nM (active)
HOP-92
  GI50: 17.5 nM (active)
CAKI-1
  GI50: < 10 nM (active)
SK-MEL-5
  GI50: < 10 nM (active)
SW-620
  GI50: < 10 nM (active)
